Literature values as cited in PMC8232766, “Chemical Composition and Immunomodulatory Activity of Essential Oils from Rhododendron albiflorum” (Molecules, 2021).

What was measured:
human neutrophils [1] = system: human neutrophils; design: method as in PMID 27586050, PMID 25959257; conditions: direct effect; previous studies; cited from earlier work
human neutrophils [2] = conditions: cited from earlier work; for Inhibition of agonist-induced neutrophil Ca2+ mobilization: previous studies; for Inhibition of agonist-induced Ca2+ mobilization in human neutrophils: found previously

Cc1ccc(C(C)C)cc1 [p-cymene]
Activation of neutrophil Ca2+ mobilization (human neutrophils [1]): no activating effects | Inhibition of agonist-induced neutrophil Ca2+ mobilization (human neutrophils [2]): no inhibitory effect

C=C1CC/C=C(\C)CC[C@@H]2[C@@H]1CC2(C)C [β-caryophyllene]
Inhibition of agonist-induced Ca2+ mobilization in human neutrophils (human neutrophils [2]): inhibited

CC1=CCC(C(C)C)=CC1 [γ-terpinene]
Activation of neutrophil Ca2+ mobilization (human neutrophils [1]): no activating effects | Inhibition of agonist-induced neutrophil Ca2+ mobilization (human neutrophils [2]): no inhibitory effect

CC1=CCC(O)(C(C)C)CC1 (centres unmarked) [terpinen-4-ol]
Activation of neutrophil Ca2+ mobilization (human neutrophils [1]): no activating effects | Inhibition of agonist-induced neutrophil Ca2+ mobilization (human neutrophils [2]): no inhibitory effect

C=C1/C=C/[C@H](C(C)C)CC/C(C)=C/CC1 [germacrene D]
Inhibition of agonist-induced Ca2+ mobilization in human neutrophils (human neutrophils [2]): inhibited

C=C(C)[C@H]1CC=C(C)CC1 [limonene]
Activation of neutrophil Ca2+ mobilization (human neutrophils [1]): no activating effects | Inhibition of agonist-induced neutrophil Ca2+ mobilization (human neutrophils [2]): no inhibitory effect

C=CC(C)(O)CCC=C(C)C (centres unmarked) [linalool]
Activation of neutrophil Ca2+ mobilization (human neutrophils [1]): no activating effects | Inhibition of agonist-induced neutrophil Ca2+ mobilization (human neutrophils [2]): no inhibitory effect

CC1=CCC2CC1C2(C)C (stereo not drawn) [α-pinene]
Activation of neutrophil Ca2+ mobilization (human neutrophils [1]): no activating effects | Inhibition of agonist-induced neutrophil Ca2+ mobilization (human neutrophils [2]): no inhibitory effect

CC1=CC=C(C(C)C)CC1 [α-terpinene]
Activation of neutrophil Ca2+ mobilization (human neutrophils [1]): no activating effects | Inhibition of agonist-induced neutrophil Ca2+ mobilization (human neutrophils [2]): no inhibitory effect

C/C1=C\CC/C(C)=C/CC(C)(C)/C=C/C1 [α-humulene]
Inhibition of agonist-induced Ca2+ mobilization in human neutrophils (human neutrophils [2]): inhibited

C=C1C2CCC(C2)C1(C)C (centres unmarked) [camphene]
Inhibition of agonist-induced neutrophil Ca2+ mobilization (human neutrophils [2]): no inhibitory effect

C=CC(=C)CCC=C(C)C [myrcene]
Activation of neutrophil Ca2+ mobilization (human neutrophils [1]): no activating effects | Inhibition of agonist-induced neutrophil Ca2+ mobilization (human neutrophils [2]): no inhibitory effect

C=C1CCC2CC1C2(C)C (stereo not drawn) [β-pinene]
Activation of neutrophil Ca2+ mobilization (human neutrophils [1]): no activating effects | Inhibition of agonist-induced neutrophil Ca2+ mobilization (human neutrophils [2]): no inhibitory effect

CC1=CCC(=C(C)C)CC1 [terpinolene]
Activation of neutrophil Ca2+ mobilization (human neutrophils [1]): no activating effects | Inhibition of agonist-induced neutrophil Ca2+ mobilization (human neutrophils [2]): no inhibitory effect

C=C1CCC2(C(C)C)CC12 (centres unmarked) [sabinene]
Activation of neutrophil Ca2+ mobilization (human neutrophils [1]): no activating effects | Inhibition of agonist-induced neutrophil Ca2+ mobilization (human neutrophils [2]): no inhibitory effect
